Assay results reported in patent US11339171B2, “MDM2 inhibitors” (Gan & Lee Pharmaceuticals, priority 2017, dated 2022).
Several values for one entry are separate records, joined by “and”; a condition that tells them apart may be missing. Equal values may be shown once. Read-outs that look alike come from different tables or passages of the source.

What was measured:
[1] = Pharmacokinetics in ICR mice after intravenous and intragastric administration; assay type: in vivo; settings: for MRT last: read-out: MRT(0-t); for MRT inf: read-out: MRT(0-∞); for Vd: read-out: Vz; for half-life: read-out: t1/2 (converted)
How it was run: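 Single-dose mouse PK study: i.v. 2 mg/kg and intragastric 5 mg/kg to fasted male ICR mice, three animals per arm. Exposure and disposition parameters (Cmax, Tmax, AUC, t1/2, F, CL, Vz) came from LC-MS/MS plasma levels.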

[2] = test system: human osteosarcoma cell line SJSA-1; experiment: Inhibition of proliferation of human osteosarcoma cell line SJSA-1 (DAPI staining, In Cell Analyzer); settings: Homo sapiens, SJSA-1, 72 h, read-out: IC50 (nM), inhibitory activity on proliferation of human osteosarcoma cell line SJSA-1, SJSA-1, incubated 72 h
MDM2 = target: T1, MDM2 (Homo sapiens, UniProt Q00987); experiment: Inhibition test of MDM2-P53 (GST-MDM2, Biotin-P53, Anti-GST-Tb, SA-XL665); assay type: binding
T1 construct: made in house
T1 sequence (Q00987 whole entry): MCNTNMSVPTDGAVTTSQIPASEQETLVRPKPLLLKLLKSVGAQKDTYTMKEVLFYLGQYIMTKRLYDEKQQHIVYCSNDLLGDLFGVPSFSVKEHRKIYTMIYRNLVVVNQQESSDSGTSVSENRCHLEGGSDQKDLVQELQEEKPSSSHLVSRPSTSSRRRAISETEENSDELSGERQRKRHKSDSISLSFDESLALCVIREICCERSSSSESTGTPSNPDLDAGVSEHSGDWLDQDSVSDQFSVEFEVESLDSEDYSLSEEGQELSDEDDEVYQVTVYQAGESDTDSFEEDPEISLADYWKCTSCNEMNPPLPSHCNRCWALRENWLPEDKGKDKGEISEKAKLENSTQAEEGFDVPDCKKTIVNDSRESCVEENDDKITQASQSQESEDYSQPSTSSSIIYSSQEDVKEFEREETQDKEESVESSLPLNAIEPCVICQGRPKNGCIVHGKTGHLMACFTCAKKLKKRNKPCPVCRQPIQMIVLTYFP
How it was run: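 Binding was measured by TR-FRET with GST-MDM2 at 4 nM final in PBS with 0.1% BSA, 5 mM DTT and 1 mM AEBSF. Compounds were tested as twelve-point 5-fold dilutions and incubated with the detection mix for 90 min at 25 °C with shaking before plate-reader reading and curve fitting.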

[3] = ICR mice, IV 2 mg/kg, individual animal, 2 mg/kg
[4] = ICR mice, PO 5 mg/kg, individual animal, 5 mg/kg
[5] = male, ICR, mouse, plasma, iv, 2 mg/kg, ICR mice, IV 2 mg/kg, individual animal
[6] = male, ICR, mouse, plasma, iv, 2 mg/kg, ICR mice, IV 2 mg/kg, mean of 3 animals
[7] = male, ICR, mouse, plasma, po, 5 mg/kg, ICR mice, PO 5 mg/kg, individual animal
[8] = male, ICR, mouse, plasma, po, 5 mg/kg, ICR mice, PO 5 mg/kg, mean of 3 animals

With `COc1cc(OC)c(-c2nc3c(n2C(C)C)[C@@]2(C(=O)Nc4cc(Cl)ccc42)N(c2cccc(Cl)c2)C3=O)cn1` [Example S-115, (S)-6-chloro-5′-(3-chlorophenyl)-2′-(4,6-dimethoxypyridin-3-yl)-3′-isopropyl-3′H-spiro[dihydroindole-3,4′-pyrrolo[3,4-d]imidazole]-2,6′(5′H)-dione] the “AUC(0-t)” value [1, 3] was 2278.66 ng·h/mL and 2987.42 ng·h/mL, the “AUC(0-∞)” value [1, 3] was 2289.66 ng·h/mL and 3011.30 ng·h/mL and the CL [1, 3] was 14.56 mL/min/kg and 11.07 mL/min/kg. For the same compound, the Cmax [1, 3] was 2549.96 ng/mL and 4136.98 ng/mL, the “MRT(0-t)” value [1, 3] was 47.4 min and 49.2 min and the “MRT(0-∞)” value [1, 3] was 49.2 min and 52.2 min. For the same compound, the Vz [1, 3] was 1.01 L/kg and 0.87 L/kg, the t1/2 [1, 3] was 48 min and the “AUC(0-t)” value [1, 4] was 2355.30 ng·h/mL and 2985.59 ng·h/mL. The “AUC(0-∞)” value [1, 4] was 2377.88 ng·h/mL and 3066.25 ng·h/mL, the Cmax [1, 4] was 2135.46 ng/mL and 834.66 ng/mL and 601.29 ng/mL and the “MRT(0-t)” value [1, 4] was 82.2 min and 128 min and 193 min. For the same compound, the “MRT(0-∞)” value [1, 4] was 84.6 min and 132 min and 203 min, the Tmax [1, 4] was 30 min and 60 min and 240 min and the t1/2 [1, 4] was 71.4 min and 67.2 min. For the same compound, the AUC(0-inf) [1, 5] was 2590 ng·h/mL, the clearance [1, 5] was 12.9 mL/min/kg and the AUC(0-t) ([1]; male, ICR, mouse, plasma, iv, 2 mg/kg, ICR mice, IV 2 mg/kg, individual animal, read-out: AUC(0-t)) was 2580 ng·h/mL. For the same compound, the Cmax ([1]; male, ICR, mouse, plasma, iv, 2 mg/kg, ICR mice, IV 2 mg/kg, individual animal, read-out: Cmax) was 3000 ng/mL, the MRT last [1, 5] was 54 min and the MRT inf [1, 5] was 56.4 min. The Tmax ([1]; male, ICR, mouse, plasma, iv, 2 mg/kg, ICR mice, IV 2 mg/kg, individual animal, read-out: Tmax) was 4.8 min, the Vd [1, 5] was 1 L/kg and the half-life [1, 5] was 54 min. It also gave an AUC(0-inf) [1, 6] of 2630 ng·h/mL, a clearance [1, 6] of 12.8 mL/min/kg and an AUC(0-t) ([1]; male, ICR, mouse, plasma, iv, 2 mg/kg, ICR mice, IV 2 mg/kg, mean of 3 animals, read-out: AUC(0-t)) of 2610 ng·h/mL. It also gave a Cmax ([1]; male, ICR, mouse, plasma, iv, 2 mg/kg, ICR mice, IV 2 mg/kg, mean of 3 animals, read-out: Cmax) of 3230 ng/mL, an MRT last [1, 6] of 50.4 min and an MRT inf [1, 6] of 52.8 min. The Tmax ([1]; male, ICR, mouse, plasma, iv, 2 mg/kg, ICR mice, IV 2 mg/kg, mean of 3 animals, read-out: Tmax) was 4.98 min, the Vd [1, 6] was 0.96 L/kg and the half-life [1, 6] was 52.2 min. It also gave an AUC(0-inf) [1, 7] of 3670 ng·h/mL, an AUC(0-t) ([1]; male, ICR, mouse, plasma, po, 5 mg/kg, ICR mice, PO 5 mg/kg, individual animal, read-out: AUC(0-t)) of 3660 ng·h/mL and a half-life [1, 7] of 64.2 min. For the same compound, the AUC(0-inf) [1, 8] was 3040 ng·h/mL, the AUC(0-t) ([1]; male, ICR, mouse, plasma, po, 5 mg/kg, ICR mice, PO 5 mg/kg, mean of 3 animals, read-out: AUC(0-t)) was 3000 ng·h/mL and the Cmax ([1]; male, ICR, mouse, plasma, po, 5 mg/kg, ICR mice, PO 5 mg/kg, mean of 3 animals, read-out: Cmax) was 1190 ng/mL. The MRT last [1, 8] was 134 min, the MRT inf [1, 8] was 140 min and the Tmax ([1]; male, ICR, mouse, plasma, po, 5 mg/kg, ICR mice, PO 5 mg/kg, mean of 3 animals, read-out: Tmax) was 110 min. The half-life [1, 8] was 67.2 min, the AUC(0-t) ([1]; male, ICR, mouse, plasma, po, 5 mg/kg, oral intragastric administration 5 mg/kg, read-out: AUC0-t) was 3000 ng·h/mL and the bioavailability ([1]; male, mouse, plasma, ICR mice, PO 5 mg/kg vs IV 2 mg/kg, from mean values, read-out: F* (bioavailability)) was 45.9%. For the same compound, the IC50 [2] was 3360 nM and the IC50 (MDM2) was 0.0013 µM.
